Laboratory results published in US20220348564A1, “PHENYL-[1,3]DIOXOLO[4,5-C]PYRIDINYL-PHENYL-, PHENYL-[1,3]DIOXOLO[4,5-C]PYRIDINYL-HETEROARYL-, OR PHENYL-(1,3)DIOXO[4,5-C]PYRIDINYL-PIPERIDINYL-METHYL-OXETANYLMETHYL-1H-BENZO[D]IMIDAZOLE-CARBOXYLIC ACID DERIVATIVES AND METHODS OF USING SAME” (Eccogene (Shanghai) Co., Ltd., priority 2021, published 2022).

target: T1, human GLP-1 (Homo sapiens, UniProt P43220); assay: h-GLP-1 activity assay (Cisbio cAMP Gs dynamic kit, HTRF); format: cell-based; settings: HEK293 cells with stable expression of human GLP-1, relative EC50, 10 nM human GLP-1 = 100% response
T1 construct: expressed in transfected cells
T1 sequence (P43220 24-463): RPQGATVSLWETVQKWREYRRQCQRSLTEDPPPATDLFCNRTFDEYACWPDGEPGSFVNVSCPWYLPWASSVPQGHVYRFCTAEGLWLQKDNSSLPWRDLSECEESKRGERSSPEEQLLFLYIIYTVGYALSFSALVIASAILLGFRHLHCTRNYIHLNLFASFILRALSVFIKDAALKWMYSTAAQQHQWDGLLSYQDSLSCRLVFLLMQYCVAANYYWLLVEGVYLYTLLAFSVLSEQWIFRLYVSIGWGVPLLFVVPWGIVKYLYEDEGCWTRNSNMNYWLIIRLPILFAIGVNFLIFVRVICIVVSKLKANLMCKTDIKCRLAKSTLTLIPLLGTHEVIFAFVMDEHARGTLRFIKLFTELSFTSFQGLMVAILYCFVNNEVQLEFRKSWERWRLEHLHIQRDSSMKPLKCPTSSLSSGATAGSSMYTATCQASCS
Protocol: Human GLP-1 agonizing activity was detected in HEK293 cells with stable expression of human GLP-1 by Cisbio cAMP Gs dynamic kit (Catalog #62AM4PEC) according to manufacturer's protocol. Briefly, cells were collected and resuspended in assay buffer containing 0.1% BSA and 0.5 mM of IBMX at concentration to 2.5×10^5 cells/mL. Two μL 5× compound solution and 8 μL cell suspension were added to each well of low-volume 384 white assay plate. After 30 min incubation at 37° C., 5 μL cAMP-d2 working solution and 5 μL anti-cAMP antibody-cryptate were added to each well, and incubate at room temperature for 1 hr. Series dilution of cAMP was used as standard. Human GLP-1 (7-37) was used as positive control and 10 nM human GLP-1 was set as 100% response. HTRF signals were read at 665 and 615 nm with EnVision plate reader and calculated cAMP concentration by intrapolation to the standard curve. The EC50 value of the tested compounds was calculated by fitting the dose response curve using a 4-parameter non-linear regression routine and relative EC50 was presented in Table S.

SMILES | EC50 [nM]
N#Cc1ccc(COc2cccc(C34CCC(Cc5nc6ccc(C(=O)O)cc6n5C[C@@H]5CCO5)(CC3)OC4)n2)c(F)c1 [Compound 36, (S)-2-((4-(6-((4-cyano-2-fluorobenzyl)oxy)pyridin-2-yl)-2-oxabicyclo[2.2.2]octan-1-yl)methyl)-1-(oxetan-2-ylmethyl)-1H-benzo[d]imidazole-6-carboxylic acid] | > 100
CC1(c2ccc(Cl)cc2F)Oc2cccc(C3CCC(Cc4nc5ccc(C(=O)O)cc5n4C[C@@H]4CCO4)CO3)c2O1 (mixture of isomers) [Compound 58, 2-((6-(2-(4-chloro-2-fluorophenyl)-2-methylbenzo[d][1,3]dioxol-4-yl)tetrahydro-2H-pyran-3-yl)methyl)-1-(((S)-oxetan-2-yl)methyl)-1H-benzo[d]imidazole-6-carboxylic acid] | > 100
C[C@]1(c2ccc(Cl)cc2F)Oc2cccc(-c3ccc(Cc4nc5ccc(C(=O)O)cc5n4C[C@@H]4CCO4)nc3)c2O1 (single isomer, unassigned) [Compound 18] | < 20
CC1(c2ccc(Cl)cc2F)Oc2cccc(-c3nc(Cc4nc5ccc(C(=O)O)cc5n4C[C@@H]4CCO4)cs3)c2O1 (mixture of isomers) [Compound 25, 2-((2-(2-(4-chloro-2-fluorophenyl)-2-methylbenzo[d][1,3]dioxol-4-yl)thiazol-4-yl)methyl)-1-(((S)-oxetan-2-yl)methyl)-1H-benzo[d]imidazole-6-carboxylic acid] | > 100
C[C@@]1(c2ccc(Cl)cc2F)Oc2cccc(-c3ccc(Cc4nc5ccc(C(=O)O)cc5n4C[C@@H]4CCO4)nc3)c2O1 (single isomer, unassigned) [Compound 4] | > 100
O=C(O)c1ccc2nc(CN3CCC(c4cccc5c4CC(c4ccc(Cl)cn4)O5)CC3)n(C[C@@H]3CCO3)c2c1 (mixture of isomers) [Compound 27, 2-((4-(2-(5-chloropyridin-2-yl)-2,3-dihydrobenzofuran-4-yl)piperidin-1-yl)methyl)-1-(((S)-oxetan-2-yl)methyl)-1H-benzo[d]imidazole-6-carboxylic acid] | > 100
N#Cc1ccc(COc2nccc(C34CCC(Cc5nc6ccc(C(=O)O)cc6n5C[C@@H]5CCO5)(CC3)CC4)n2)c(F)c1 [Compound 34, (S)-2-((4-(2-((4-cyano-2-fluorobenzyl)oxy)pyrimidin-4-yl)bicyclo[2.2.2]octan-1-yl)methyl)-1-(oxetan-2-ylmethyl)-1H-benzo[d]imidazole-6-carboxylic acid] | > 100
C[C@@]1(c2ccc(Cl)cc2F)Oc2cccc(C3CCN(Cc4nc5ccc(-c6noc(=O)[nH]6)cc5n4C[C@@H]4CCO4)CC3)c2O1 (single isomer, unassigned) [Compound 37] | < 20
C[C@@]1(c2ccc(Cl)cc2F)Oc2cccc(-c3ccc(Cc4nc5ccc(C(=O)O)cc5n4C[C@@H]4CCO4)cc3)c2O1 (single isomer, unassigned) [Compound 3] | > 100
CC1(c2ccc(Cl)cc2F)Oc2cccc(-c3ccc(Cc4nc5ccc(C(=O)O)cc5n4C[C@@H]4CCO4)cc3)c2O1 (mixture of isomers) [Compound 15, 2-(4-(2-(4-chloro-2-fluorophenyl)-2-methylbenzo[d][1,3]dioxol-4-yl)benzyl)-1-(((S)-oxetan-2-yl)methyl)-1H-benzo[d]imidazole-6-carboxylic acid] | < 20
C[C@@]1(c2ccc(Cl)cn2)Oc2cccc(-c3ccc(Cc4nc5ccc(C(=O)O)cc5n4C[C@@H]4CCO4)cc3)c2O1 (single isomer, unassigned) [Compound 41] | > 100
O=C(O)c1ccc2nc(CC34CCC(c5ccnc(OCc6ccc(Cl)cc6F)n5)(CC3)CO4)n(C[C@@H]3CCO3)c2c1 [Compound 35, (S)-2-((4-(2-((4-chloro-2-fluorobenzyl)oxy)pyrimidin-4-yl)-2-oxabicyclo[2.2.2]octan-1-yl)methyl)-1-(oxetan-2-ylmethyl)-1H-benzo[d]imidazole-6-carboxylic acid] | > 100
CC1(c2ccc(Cl)cc2F)Oc2cccc(C3CC4(C3)CN(Cc3nc5ccc(C(=O)O)cc5n3C[C@@H]3CCO3)C4)c2O1 (mixture of isomers) [Compound 23, 2-((6-(2-(4-chloro-2-fluorophenyl)-2-methylbenzo[d][1,3]dioxol-4-yl)-2-azaspiro[3.3]heptan-2-yl)methyl)-1-(((S)-oxetan-2-yl)methyl)-1H-benzo[d]imidazole-6-carboxylic acid] | > 100
Cc1cc(Cc2nc3ccc(C(=O)O)cc3n2C[C@@H]2CCO2)ccc1-c1cccc2c1OC(C)(c1ccc(Cl)cc1F)O2 (mixture of isomers) [Compound 43, 2-(4-(2-(4-chloro-2-fluorophenyl)-2-methylbenzo[d][1,3]dioxol-4-yl)-3-methylbenzyl)-1-(((S)-oxetan-2-yl)methyl)-1H-benzo[d]imidazole-6-carboxylic acid] | < 20
N#Cc1ccc(COc2cccc([C@H]3CC[C@H](Cc4nc5ccc(C(=O)O)cc5n4C[C@@H]4CCO4)OC3)n2)c(F)c1 (single isomer, unassigned) [Compound 30] | < 20
C[C@@]1(c2ccc(Cl)cc2F)Oc2cccc(C3CCN(Cc4nc5ccc(C(=O)NS(=O)(=O)C6CC6)cc5n4C[C@@H]4CCO4)CC3)c2O1 (single isomer, unassigned) [Compound 24] | < 20

The remaining lines, values ahead:

EC50 [nM] | SMILES
> 100 | C[C@]1(c2ccc(C(F)(F)F)cn2)Oc2cccc(C3=CCC(Cc4nc5c(F)cc(C(=O)O)cc5n4C[C@@H]4CCO4)OC3)c2O1 (single isomer, unassigned) [Compound 122]
< 20 | C[C@]1(c2ccc(Cl)cn2)Oc2cccc(C3=CC[C@H](Cc4nc5c(F)cc(C(=O)O)cc5n4Cc4cscn4)OC3)c2O1 (single isomer, unassigned) [Compound 116]
> 100 | C[C@@]1(c2ccc(Cl)cn2)Oc2cccc(C34COC(Cc5nc6ccc(C(=O)O)cc6n5C[C@@H]5CCO5)CC3C4)c2O1 (single isomer, unassigned) [Compound 75]
20 to 100 | C[C@]1(c2ccc(Cl)cn2)Oc2cccc(C3=CC[C@@H](Cc4nc5c(F)cc(C(=O)O)cc5n4C[C@@H]4CCO4)OC3)c2O1 (single isomer, unassigned) [Compound 119]
> 100 | O=C(O)c1ccc2nc(CC3CC(c4cccc(OCc5ccc(Cl)cc5F)n4)CO3)n(C[C@@H]3CCO3)c2c1 (mixture of isomers) [Compound 71, 2-((4-(6-((4-chloro-2-fluorobenzyl)oxy)pyridin-2-yl)tetrahydrofuran-2-yl)methyl)-1-(((S)-oxetan-2-yl)methyl)-1H-benzo[d]imidazole-6-carboxylic acid]
< 20 | C[C@@]1(c2ccc(C3CC3)cn2)Oc2cccc(C3=CCC(Cc4nc5ccc(C(=O)O)cc5n4C[C@@H]4CCO4)OC3)c2O1 (single isomer, unassigned) [Compound 111]
< 20 | C[C@@]1(c2ccc(C3CC3)cn2)Oc2cccc(C3=CC[C@H](Cc4nc5c(F)cc(C(=O)O)cc5n4C[C@@H]4CCO4)OC3)c2O1 (single isomer, unassigned) [Compound 123]
> 100 | C[C@@]1(c2ccc(Cl)cn2)Oc2cccc(C3=CC[C@@H](Cc4nc5ccc(C(=O)O)cc5n4C[C@@H]4CCO4)OC3)c2O1 (single isomer, unassigned) [Compound 79]
20 to 100 | C[C@@]1(c2ccc(Cl)cn2)Oc2cccc(C3C4CN(Cc5nc6ccc(C(=O)O)cc6n5C[C@@H]5CCO5)CC43)c2O1 (single isomer, unassigned) [Compound 85]
< 20 | CC1(c2ccc(Cl)cc2F)Oc2cccc(C3=CCC(Cc4nc5ccc(C(=O)O)cc5n4C[C@@H]4CCO4)OC3)c2O1 (mixture of isomers) [Compound 61, 2-((5-(2-(4-chloro-2-fluorophenyl)-2-methylbenzo[d][1,3]dioxol-4-yl)-3,6-dihydro-2H-pyran-2-yl)methyl)-1-(((S)-oxetan-2-yl)methyl)-1H-benzo[d]imidazole-6-carboxylic acid]
20 to 100 | O=C(O)c1ccc2nc(CC3CC=C(c4cccc5c4OC(c4ccc(Cl)cc4F)CO5)CO3)n(C[C@@H]3CCO3)c2c1 (mixture of isomers) [Compound 70, 2-((5-(3-(4-chloro-2-fluorophenyl)-2,3-dihydrobenzo[b][1,4]dioxin-5-yl)-3,6-dihydro-2H-pyran-2-yl)methyl)-1-(((S)-oxetan-2-yl)methyl)-1H-benzo[d]imidazole-6-carboxylic acid]
> 100 | O=C(O)c1ccc2nc(CN3CC=C(c4cccc5c4OC(c4ccc(Cl)cc4F)C(=O)N5)CC3)n(C[C@@H]3CCO3)c2c1 (mixture of isomers) [Compound 81, 2-((4-(2-(4-chloro-2-fluorophenyl)-3-oxo-3,4-dihydro-2H-benzo[b][1,4]oxazin-8-yl)-3,6-dihydropyridin-1(2H)-yl)methyl)-1-(((S)-oxetan-2-yl)methyl)-1H-benzo[d]imidazole-6-carboxylic acid]
20 to 100 | C[C@@]1(c2ccc(Cl)cn2)Oc2cccc([C@@H]3CC[C@H](Cc4nc5ccc(C(=O)O)cc5n4C[C@@H]4CCO4)OC3)c2O1 (single isomer, unassigned) [Compound 103]
> 100 | C[C@]1(c2ccc(Cl)cn2)Oc2cccc(C3=CC[C@@H](Cc4nc5ccc(C(=O)O)cc5n4Cc4cscn4)OC3)c2O1 (single isomer, unassigned) [Compound 115]
> 100 | C[C@]1(c2ccc(Cl)cc2F)Oc2cccc(C3=CC[C@H](Cc4nc5ccc(C(=O)O)cc5n4C[C@@H]4CCO4)OC3)c2O1 (single isomer, unassigned) [Compound 107]
> 100 | C[C@]1(c2ccc(Cl)cn2)Oc2cccc(C3=CC[C@@H](Cc4nc5c(F)cc(C(=O)O)cc5n4Cc4cscn4)OC3)c2O1 (single isomer, unassigned) [Compound 117]
